In US12692261B2, “Substituted heterocyclic compounds and therapeutic uses thereof” (Bayer Aktiengesellschaft, priority 2020, dated 2026) one finds IC50 data, which are given here for 21 molecules.

pIC50: −log10 of the molar value.

For one test, the target named is T1, full-length human CSNK1D (Homo sapiens, UniProt P48730).
T1 construct: N-terminal Glutathion-S-Transferase (GST) and full-length human CSNK1D; purchased Life Technologies PV3665; host or cells: baculovirus infected insect cells
The test can be described thus: CSNK1D Assay (ADP-Glo, 1 μM ATP). Format: biochemical. The conditions noted are these: Table 3, read-out: CSNK1D IC50 [mol/l] (median). The procedure, abridged: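 ADP-Glo luminescence reports ADP generated by GST-fused full-length human CSNK1D (insect-cell expressed, about 0.5 ng/μL) acting on a biotinylated peptide at 1 μM ATP. Test compounds were pre-bound to enzyme 15 min at 22° C in 50 mM HEPES pH 7.5.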

The target of test [1] is T2, full-length human CSNK1A1 (Homo sapiens, UniProt P48729).
T2 construct: N-terminal Glutathion-S-Transferase (GST) and full-length human CSNK1A1; purchased Life Technologies PV4174; host or cells: baculovirus infected insect cells
T2 sequence (P48729 whole entry): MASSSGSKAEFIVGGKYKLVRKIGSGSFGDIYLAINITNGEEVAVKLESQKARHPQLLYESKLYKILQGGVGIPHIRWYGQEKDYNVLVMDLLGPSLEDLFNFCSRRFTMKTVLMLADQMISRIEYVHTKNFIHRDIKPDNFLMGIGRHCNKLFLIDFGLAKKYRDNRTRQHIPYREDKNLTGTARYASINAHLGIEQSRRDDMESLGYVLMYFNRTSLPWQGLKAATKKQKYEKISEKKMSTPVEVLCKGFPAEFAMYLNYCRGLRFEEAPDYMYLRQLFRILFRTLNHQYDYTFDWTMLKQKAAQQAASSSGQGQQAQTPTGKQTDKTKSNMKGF
Put plainly: CSNK1A1 Assay 2 (ADP-Glo, 1 μM ATP, substrate biotin-Ahx-KRRRAL-pS-VASLPGL). Type of test: biochemical. The conditions noted are these: Table 3, read-out: CSNK1A1 Assay 2 IC50 [mol/l] (median). The procedure, abridged: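 Activity read as ADP generated (ADP-Glo luciferase luminescence, 1 h detection steps at 22 °C). Enzyme was insect-cell-expressed GST–full-length human CSNK1A1, compound-preincubated 15 min before reaction with phosphopeptide substrate and 1 μM ATP in 50 mM HEPES pH 7.5, 10 mM MgCl2.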

T1 sequence (P48730 whole entry): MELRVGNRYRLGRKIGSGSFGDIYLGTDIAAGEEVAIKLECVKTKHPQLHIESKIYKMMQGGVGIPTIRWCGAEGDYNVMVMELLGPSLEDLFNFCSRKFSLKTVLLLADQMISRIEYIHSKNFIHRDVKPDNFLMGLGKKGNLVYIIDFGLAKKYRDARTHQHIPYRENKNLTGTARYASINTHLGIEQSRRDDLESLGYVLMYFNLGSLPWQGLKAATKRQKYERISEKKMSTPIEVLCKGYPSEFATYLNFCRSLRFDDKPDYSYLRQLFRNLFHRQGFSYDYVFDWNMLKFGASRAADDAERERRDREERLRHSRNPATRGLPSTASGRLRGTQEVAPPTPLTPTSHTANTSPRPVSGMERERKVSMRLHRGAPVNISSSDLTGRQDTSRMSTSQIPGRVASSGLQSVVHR

In the case of `O=C(Nc1cc(-c2[nH]c3c(OCC(F)F)ncnc3c2-c2ccccn2)ccn1)C(CC(F)F)c1ccc(F)cc1` (racemic) [Example 78, (2RS)—N-{4-[4-(2,2-difluoroethoxy)-7-(pyridin-2-yl)-5H-pyrrolo[3,2-d]pyrimidin-6-yl]pyridin-2-yl}-4,4-difluoro-2-(4-fluorophenyl)butanamide], the pIC50 (on full-length human CSNK1D; in test [1]) was 8.29 each time.

Turning to `COc1cnc2c(-c3ccccn3)c(-c3ccnc(NC(=O)C(CC(F)F)c4ccc(F)cc4)c3)[nH]c2c1` (single isomer, unassigned) [Example 83, 4,4-difluoro-2-(4-fluorophenyl)-N-{4-[6-methoxy-3-(pyridin-2-yl)-1H-pyrrolo[3,2-b]pyridin-2-yl]pyridin-2-yl}butanamide], the figures for the pIC50 (on full-length human CSNK1D; in test [1]) were 7.45 and 8.01, respectively.

Turning to `O=C(Nc1cc(-c2[nH]c3cc(Cl)nnc3c2-c2ccccn2)ccn1)C(CC(F)F)c1ccc(F)cc1` (racemic) [Example 68, (2RS)—N-{4-[3-chloro-7-(pyridin-2-yl)-5H-pyrrolo[3,2-c]pyridazin-6-yl]pyridin-2-yl}-4,4-difluoro-2-(4-fluorophenyl)butanamide], the pIC50 on full-length human CSNK1D is 7.84; in test [1] it was 8.16.

`O=C(Nc1cc(-c2[nH]c3c(O[C@H]4CCOC4)ncnc3c2-c2ccccn2)ccn1)C(CC(F)F)c1ccc(F)cc1` (mixture of isomers) [Example 72, (2RS)-4,4-difluoro-2-(4-fluorophenyl)-N-{4-[4-{[(3S)-oxolan-3-yl]oxy}-7-(pyridin-2-yl)-5H-pyrrolo[3,2-d]pyrimidin-6-yl]pyridin-2-yl}butanamide]: the pIC50 on full-length human CSNK1D is 8.14; in test [1], 8.15.

`O=C(Nc1cc(-c2[nH]c3c(N4CCOCC4)cc(F)nc3c2-c2ccccn2)ccn1)C(CC(F)F)c1ccc(F)cc1` (racemic) [Example 69, (2RS)-4,4-difluoro-N-{4-[5-fluoro-7-(morpholin-4-yl)-3-(pyridin-2-yl)-1H-pyrrolo[3,2-b]pyridin-2-yl]pyridin-2-yl}-2-(4-fluorophenyl)butanamide]: the pIC50 at full-length human CSNK1D is 8.01; in test [1], 7.98.

Regarding `O=C(Nc1cc(-c2[nH]c3ccc(Cl)nc3c2-c2ccccn2)ccn1)C(CC(F)F)c1ccc(F)cc1` (racemic) [Example 70, (2RS)—N-{4-[5-chloro-3-(pyridin-2-yl)-1H-pyrrolo[3,2-b]pyridin-2-yl]pyridin-2-yl}-4,4-difluoro-2-(4-fluorophenyl)butanamide], the pIC50 on full-length human CSNK1D was 8.04; in test [1] it was 8.27.

Regarding `O=C(Nc1cc(-c2[nH]c3c(OC[C@H]4COCCO4)cc(F)nc3c2-c2ccccn2)ccn1)C(CC(F)F)c1ccc(F)cc1` (single isomer, unassigned) [Example 51, (2R or S)—N-{4-[7-{[(2R)-1,4-dioxan-2-yl]methoxy}-5-fluoro-3-(pyridin-2-yl)-1H-pyrrolo[3,2-b]pyridin-2-yl]pyridin-2-yl}-4,4-difluoro-2-(4-fluorophenyl)butanamide], the pIC50 is 8.39 at full-length human CSNK1D and 8.33 in test [1].

As for `O=C(Nc1cc(-c2[nH]c3ccnnc3c2-c2ccccn2)ccn1)C(CC(F)F)c1ccc(F)cc1` (single isomer, unassigned) [Example 67, (2R or S)-4,4-difluoro-2-(4-fluorophenyl)-N-{4-[7-(pyridin-2-yl)-5H-pyrrolo[3,2-c]pyridazin-6-yl]pyridin-2-yl}butanamide], the pIC50 was 7.53 at full-length human CSNK1D and 7.66 in test [1].

For `O=C(Nc1cc(-c2[nH]c3nc(F)cnc3c2-c2ccccn2)ccn1)C(CC(F)F)c1ccc(F)cc1` (racemic) [Example 60, (2RS)-4,4-difluoro-2-(4-fluorophenyl)-N-{4-[3-fluoro-7-(pyridin-2-yl)-5H-pyrrolo[2,3-b]pyrazin-6-yl]pyridin-2-yl}butanamide], the figures for the pIC50 (on full-length human CSNK1D; in test [1]) were 7.90 and 8.24, respectively.

With `O=C(Nc1cc(-c2[nH]c3ccnnc3c2-c2ccccn2)ccn1)C(CC(F)F)c1ccc(F)cc1` (single isomer, unassigned) [Example 66, (2R or 2S)-4,4-difluoro-2-(4-fluorophenyl)-N-{4-[7-(pyridin-2-yl)-5H-pyrrolo[3,2-c]pyridazin-6-yl]pyridin-2-yl}butanamide], the pIC50 is 8.34 on full-length human CSNK1D and 8.61 in test [1].

`O=C(Nc1cc(-c2[nH]c3ccc(F)nc3c2-c2ccccn2)ccn1)C(CC(F)F)c1ccc(F)cc1` (racemic) [Example 1, 4,4-difluoro-2-(4-fluorophenyl)-N-{4-[5-fluoro-3-(pyridin-2-yl)-1H-pyrrolo[3,2-b]pyridin-2-yl]pyridin-2-yl}butanamide]: the pIC50 was 7.80 at full-length human CSNK1D and 8.00 in test [1].

Take `Cc1cnc2c(-c3ccccn3)c(-c3ccnc(NC(=O)C(CC(F)F)c4ccc(F)cc4)c3)[nH]c2n1` (single isomer, unassigned; (+)) [Example 86, (+)-4,4-difluoro-2-(4-fluorophenyl)-N-{4-[3-methyl-7-(pyridin-2-yl)-5H-pyrrolo[2,3-b]pyrazin-6-yl]pyridin-2-yl}butanamide]: the pIC50 on full-length human CSNK1D was 8.21; in test [1], 8.54.

Turning to `O=C(Nc1cc(-c2[nH]c3ncc(F)nc3c2-c2ccccn2)ccn1)C(CC(F)F)c1ccc(F)cc1` (single isomer, unassigned) [Example 64, (2R or S)-4,4-difluoro-2-(4-fluorophenyl)-N-{4-[2-fluoro-7-(pyridin-2-yl)-5H-pyrrolo[2,3-b]pyrazin-6-yl]pyridin-2-yl}butanamide], the pIC50 at full-length human CSNK1D was 7.39; in test [1] it was 7.64.

Take `O=C(Nc1cc(-c2[nH]c3c(OCC(F)F)ncnc3c2-c2ccccn2)ccn1)C(CC(F)F)c1ccc(F)cc1` (single isomer, unassigned) [Example 80, (2R or S)—N-{4-[4-(2,2-difluoroethoxy)-7-(pyridin-2-yl)-5H-pyrrolo[3,2-d]pyrimidin-6-yl]pyridin-2-yl}-4,4-difluoro-2-(4-fluorophenyl)butanamide]: the values for the pIC50 (at full-length human CSNK1D; in test [1]) were 7.58 and 7.77, respectively.

Turning to `O=C(Nc1cc(-c2[nH]c3ccnnc3c2-c2ccccn2)ccn1)C(CC(F)F)c1ccc(F)cc1` (racemic) [Example 65, (2RS)-4,4-difluoro-2-(4-fluorophenyl)-N-{4-[7-(pyridin-2-yl)-5H-pyrrolo[3,2-c]pyridazin-6-yl]pyridin-2-yl}butanamide], the pIC50 on full-length human CSNK1D is 8.25; in test [1], 8.56.

Regarding `O=C(Nc1cc(-c2[nH]c3c(O[C@H]4CCOC4)ncnc3c2-c2ccccn2)ccn1)C(CC(F)F)c1ccc(F)cc1` (single isomer, unassigned) [Example 74, (2R or S)-4,4-difluoro-2-(4-fluorophenyl)-N-{4-[4-{[(3S)-oxolan-3-yl]oxy}-7-(pyridin-2-yl)-5H-pyrrolo[3,2-d]pyrimidin-6-yl]pyridin-2-yl}butanamide], the pIC50 was 7.26 on full-length human CSNK1D and 7.45 in test [1].

`O=C(Nc1cc(-c2[nH]c3c(OC[C@@H]4COCCO4)cc(F)nc3c2-c2ccccn2)ccn1)C(CC(F)F)c1ccc(F)cc1` (mixture of isomers) [Example 57, (2RS)—N-(4-{7-[(2S)-1,4-dioxan-2-ylmethoxy]-5-fluoro-3-(pyridin-2-yl)-1H-pyrrolo[3,2-b]pyridin-2-yl}pyridin-2-yl)-4,4-difluoro-2-(4-fluorophenyl)butanamide]: the pIC50 at full-length human CSNK1D is 8.20; in test [1] it was 8.10.

As for `O=C(Nc1cc(-c2[nH]c3ncc(F)nc3c2-c2ccccn2)ccn1)C(CC(F)F)c1ccc(F)cc1` (racemic) [Example 62, (2RS)-4,4-difluoro-2-(4-fluorophenyl)-N-{4-[2-fluoro-7-(pyridin-2-yl)-5H-pyrrolo[2,3-b]pyrazin-6-yl]pyridin-2-yl}butanamide], the figures for the pIC50 (at full-length human CSNK1D; in test [1]) were 8.05 and 8.41, respectively.

As for `O=C(Nc1cc(-c2[nH]c3c(OCC(F)F)ncnc3c2-c2ccccn2)ccn1)C(CC(F)F)c1ccc(F)cc1` (single isomer, unassigned) [Example 79, (2R or S)—N-{4-[4-(2,2-difluoroethoxy)-7-(pyridin-2-yl)-5H-pyrrolo[3,2-d]pyrimidin-6-yl]pyridin-2-yl}-4,4-difluoro-2-(4-fluorophenyl)butanamide], the pIC50 was 8.49 at full-length human CSNK1D and 8.51 in test [1].

On to `O=C(Nc1cc(-c2[nH]c3c(O[C@H]4CCOC4)cc(F)nc3c2-c2ccccn2)ccn1)C(CC(F)F)c1ccc(F)cc1` (mixture of isomers) [Example 53, (2RS)-4,4-difluoro-N-{4-[5-fluoro-7-{[(3S)-oxolan-3-yl]oxy}-3-(pyridin-2-yl)-1H-pyrrolo[3,2-b]pyridin-2-yl]pyridin-2-yl}-2-(4-fluorophenyl)butanamide], for which the pIC50 was 8.14 on full-length human CSNK1D and 8.22 in test [1].

Regarding `O=C(Nc1cc(-c2[nH]c3c(OC[C@@H]4COCCO4)cc(F)nc3c2-c2ccccn2)ccn1)C(CC(F)F)c1ccc(F)cc1` (single isomer, unassigned) [Example 58, (2R or S)—N-{4-[7-{[(2S)-1,4-dioxan-2-yl]methoxy}-5-fluoro-3-(pyridin-2-yl)-1H-pyrrolo[3,2-b]pyridin-2-yl]pyridin-2-yl}-4,4-difluoro-2-(4-fluorophenyl)butanamide], the pIC50 at full-length human CSNK1D was 8.52; in test [1] it was 8.45.
